US6013625A, “Method and composition for treating thrombosis” (La Jolla Cancer Research Foundation, priority 1994, dated 2000)
“And” between values parts separate entries of the source, which are not always exact repeats. Identical values can stand only once.

Assays:
[1] = system: platelets stimulated with ADP; experiment: ADP-stimulated platelet aggregation (aggregometer, platelet-rich plasma); conditions: read-out: ADP-Stimulated Aggregation (IC50), ADP 10 μm, 37° C.
Procedure: Briefly, the change in light transmission was measured through a stirred suspension of platelets in an aggregometer (Model 400 VS, Chrono-Log, Havertown, Pa., USA). […] In studies using thrombin, the PRP was gel-filtered on Sepharose 2B in divalent ion-free Tyrode's solution containing 2% BSA. For all studies, the reference standard was platelet-poor plasma, which was obtained by centrifuging PRP at 1000×g for 5 min.
All aggregation studies were performed at 37° C. with a constantly stirred suspension of 3×10^8 platelets/ml. (Platelet count was determined with the aid of a hemacytometer.) Peptides and stimulants were added to these suspensions in 1% dilutions. The PRP and gel-filtered platelets were used within three hours from the time of blood collection.
Peptide anti-aggregation potencies were determined from dose-responsive curves for the inhibition of the maximum aggregation responses stimulated by physiologic doses of ADP (10 μm) and thrombin (2 U/ml).

[2] = biological target: T1, fibronectin receptor (Fn-R) (Homo sapiens, UniProt P05556+P08648); experiment: Competitive ELISA for fibronectin receptor binding; conditions: purified receptor from human placenta, read-out: FnR Binding (IC50)
T1 construct: purified from (100 mM) octyl glucoside-extracted human placenta; from tissue; host or cells: human placenta
T1 sequence (P08648 42-894 limits assumed): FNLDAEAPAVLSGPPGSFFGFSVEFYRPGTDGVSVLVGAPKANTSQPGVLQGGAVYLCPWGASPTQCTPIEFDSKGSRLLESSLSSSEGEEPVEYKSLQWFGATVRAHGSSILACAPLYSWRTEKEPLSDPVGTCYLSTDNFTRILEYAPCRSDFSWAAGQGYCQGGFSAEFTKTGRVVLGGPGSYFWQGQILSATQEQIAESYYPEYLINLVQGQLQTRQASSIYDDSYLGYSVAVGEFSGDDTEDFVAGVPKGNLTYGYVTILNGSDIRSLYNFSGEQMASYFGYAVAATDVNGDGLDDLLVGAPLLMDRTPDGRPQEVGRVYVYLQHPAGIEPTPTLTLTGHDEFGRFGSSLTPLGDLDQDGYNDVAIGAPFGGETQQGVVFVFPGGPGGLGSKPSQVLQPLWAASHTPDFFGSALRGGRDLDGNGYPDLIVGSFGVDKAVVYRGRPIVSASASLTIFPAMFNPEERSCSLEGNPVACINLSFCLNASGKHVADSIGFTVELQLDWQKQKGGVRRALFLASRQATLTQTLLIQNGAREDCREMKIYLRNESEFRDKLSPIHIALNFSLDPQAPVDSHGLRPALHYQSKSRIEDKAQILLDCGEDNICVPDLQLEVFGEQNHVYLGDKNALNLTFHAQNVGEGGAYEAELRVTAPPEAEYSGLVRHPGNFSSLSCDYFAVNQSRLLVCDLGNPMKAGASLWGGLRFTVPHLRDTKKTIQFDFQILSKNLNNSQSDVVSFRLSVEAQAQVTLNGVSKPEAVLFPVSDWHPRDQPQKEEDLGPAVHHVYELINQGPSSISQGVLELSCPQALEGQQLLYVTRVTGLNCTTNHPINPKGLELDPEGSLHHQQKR
T1 sequence (P08648 895-1049 partner limits assumed): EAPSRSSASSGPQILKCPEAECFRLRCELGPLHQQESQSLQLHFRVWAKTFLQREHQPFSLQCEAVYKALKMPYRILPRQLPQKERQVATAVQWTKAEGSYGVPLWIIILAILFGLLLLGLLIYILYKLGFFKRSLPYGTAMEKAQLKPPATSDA
T1 sequence (P05556 21-798): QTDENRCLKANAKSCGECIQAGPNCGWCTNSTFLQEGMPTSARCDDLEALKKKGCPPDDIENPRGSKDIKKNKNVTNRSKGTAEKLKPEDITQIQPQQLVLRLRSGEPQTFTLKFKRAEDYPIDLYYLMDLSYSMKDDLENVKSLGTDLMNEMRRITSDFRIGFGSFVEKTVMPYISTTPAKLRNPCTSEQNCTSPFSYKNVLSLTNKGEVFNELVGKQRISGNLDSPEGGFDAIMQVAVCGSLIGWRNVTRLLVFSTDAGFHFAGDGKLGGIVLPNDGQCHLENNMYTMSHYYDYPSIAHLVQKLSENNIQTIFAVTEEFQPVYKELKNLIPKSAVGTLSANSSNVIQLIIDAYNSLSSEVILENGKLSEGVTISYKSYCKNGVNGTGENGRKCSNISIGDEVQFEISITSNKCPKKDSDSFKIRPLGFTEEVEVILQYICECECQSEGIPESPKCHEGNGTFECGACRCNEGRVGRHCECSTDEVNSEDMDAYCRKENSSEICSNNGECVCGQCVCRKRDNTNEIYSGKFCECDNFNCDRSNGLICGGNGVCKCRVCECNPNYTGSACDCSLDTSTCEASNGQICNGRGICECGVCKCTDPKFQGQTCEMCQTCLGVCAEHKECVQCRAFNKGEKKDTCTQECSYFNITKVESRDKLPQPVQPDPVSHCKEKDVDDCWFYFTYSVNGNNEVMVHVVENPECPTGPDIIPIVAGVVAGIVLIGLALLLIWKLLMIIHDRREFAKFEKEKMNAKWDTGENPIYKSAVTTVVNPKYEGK
Procedure: Peptide binding to purified Fn-R was determined by using a competitive enzyme-linked immunosorbent assay (ELISA) in which fibronectin is immobilized and the binding of solubilized Fn-R is detected with labeled anti-FnR antibodies in the presence of various concentrations of peptide analogue.
Microtiter plates were coated with 110 μl of human fibronectin (at 2 μg/ml) in TBS. The plates were washed three times with TBS that contained 0.05% Tween 20. If necessary, peptides were added after this washing in 10 microliter aliquots. The fibronectin receptor was then added in 2-fold serial dilutions with TBS containing 20 mM octyl glucoside and 2 mM MnCl2. The plates were incubated for three hours at room temperature, washed with 200 μl of the above TBS-Tween buffer. 100 μl of affinity-purified rabbit anti-human fibronectin receptor antibody was added to the wells and the plates were incubated for an additional two hours, washed twice with TBS-Tween and then distilled water. Affinity-purified goat anti-rabbit IgG conjugated to horseradish peroxidase (100 μl) was then added to each well. Bonding reactions were incubated for 16 hours at room temperature. The following day, the plates were washed twice with TBS-Tween and then distilled water. […]

[3] = biological target: T2, vitronectin receptor (Vn-R) (Homo sapiens, UniProt P05106+P06756); experiment: Liposome attachment assay for vitronectin receptor; conditions: purified receptor from human placenta, read-out: VnR Binding (IC50)
T2 construct: from tissue; host or cells: human placenta
T2 sequence (P06756 31-889 limits assumed): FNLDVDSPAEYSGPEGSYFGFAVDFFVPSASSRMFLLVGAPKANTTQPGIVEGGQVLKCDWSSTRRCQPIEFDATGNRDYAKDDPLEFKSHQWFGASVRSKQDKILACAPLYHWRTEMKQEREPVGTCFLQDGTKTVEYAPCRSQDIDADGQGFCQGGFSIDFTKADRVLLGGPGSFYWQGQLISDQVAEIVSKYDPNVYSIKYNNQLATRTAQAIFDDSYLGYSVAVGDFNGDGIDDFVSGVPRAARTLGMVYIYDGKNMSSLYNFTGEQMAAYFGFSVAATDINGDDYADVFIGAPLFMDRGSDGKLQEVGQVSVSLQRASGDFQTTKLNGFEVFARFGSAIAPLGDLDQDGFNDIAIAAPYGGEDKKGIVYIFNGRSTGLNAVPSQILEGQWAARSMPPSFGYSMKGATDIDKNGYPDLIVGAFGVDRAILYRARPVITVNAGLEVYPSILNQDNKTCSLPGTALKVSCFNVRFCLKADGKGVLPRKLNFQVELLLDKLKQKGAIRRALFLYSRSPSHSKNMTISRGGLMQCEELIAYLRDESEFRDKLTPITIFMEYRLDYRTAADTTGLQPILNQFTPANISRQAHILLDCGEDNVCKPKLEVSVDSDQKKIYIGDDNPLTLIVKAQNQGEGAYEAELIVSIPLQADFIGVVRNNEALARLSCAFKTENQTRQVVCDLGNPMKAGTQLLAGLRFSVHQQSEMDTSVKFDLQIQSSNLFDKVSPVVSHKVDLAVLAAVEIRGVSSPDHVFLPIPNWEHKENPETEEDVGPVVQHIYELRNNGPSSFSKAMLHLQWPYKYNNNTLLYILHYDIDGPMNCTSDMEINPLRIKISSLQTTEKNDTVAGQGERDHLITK
T2 sequence (P06756 891-1048 partner limits assumed): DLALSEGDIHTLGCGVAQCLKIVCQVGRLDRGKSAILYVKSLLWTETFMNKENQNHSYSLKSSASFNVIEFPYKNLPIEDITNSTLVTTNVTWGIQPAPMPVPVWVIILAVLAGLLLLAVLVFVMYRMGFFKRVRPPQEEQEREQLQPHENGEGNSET
T2 sequence (P05106 27-788): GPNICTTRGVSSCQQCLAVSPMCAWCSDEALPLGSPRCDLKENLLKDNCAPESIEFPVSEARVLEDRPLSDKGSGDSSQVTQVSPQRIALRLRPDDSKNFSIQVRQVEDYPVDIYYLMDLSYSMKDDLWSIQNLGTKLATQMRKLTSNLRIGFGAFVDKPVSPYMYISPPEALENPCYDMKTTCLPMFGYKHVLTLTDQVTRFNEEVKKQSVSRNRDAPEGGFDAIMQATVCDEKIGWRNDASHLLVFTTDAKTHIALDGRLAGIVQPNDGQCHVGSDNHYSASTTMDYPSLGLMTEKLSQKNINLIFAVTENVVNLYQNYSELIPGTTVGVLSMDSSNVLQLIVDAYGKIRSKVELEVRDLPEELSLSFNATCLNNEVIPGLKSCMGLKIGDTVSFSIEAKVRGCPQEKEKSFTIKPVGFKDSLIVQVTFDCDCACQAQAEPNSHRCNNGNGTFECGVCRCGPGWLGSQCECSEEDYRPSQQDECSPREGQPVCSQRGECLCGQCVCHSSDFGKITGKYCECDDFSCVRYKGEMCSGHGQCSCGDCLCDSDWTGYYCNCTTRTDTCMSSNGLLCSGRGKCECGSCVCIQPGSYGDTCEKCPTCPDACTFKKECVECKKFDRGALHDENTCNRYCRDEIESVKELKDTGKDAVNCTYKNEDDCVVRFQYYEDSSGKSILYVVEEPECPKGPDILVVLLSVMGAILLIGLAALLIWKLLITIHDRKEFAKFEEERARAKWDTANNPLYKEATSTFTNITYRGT
Procedure: Receptors were purified according to the procedures of Pytela et al. (Methods Enzymol. 144:475 (1987)), incorporated herein by reference. […] After extraction, the suspension was filtered over a Sepharose 6B column and then applied to a GRGDSPK column. Except where stated, all procedures were carried out at 4° C. The peptide column was washed with three volumes of Tris-buffered saline (TBS) containing 1 mM Ca^2+ and 25 mM OG and then with TBS containing 1 mM Ca^2+ and 25 mM octyl thioglucoside (OTG) at room temperature. […] Finally, Ca^2+ and Mg^+2 were added to eluted fractions to achieve final concentrations of 1 mM for both ions.
This assay was performed with minor modifications, according to the method of Pytela et al., Methods Enzymol. 144:475 (1987), incorporated herein by reference. […] An aliquot of the dialyzed sample was counted to assess radioactive content; the receptor-liposome mixture was then diluted to obtain a set radioactivity per unit volume. […]
(§1) In parallel studies with the platelet aggregation experiments (described in Example V), the apparent affinities of peptides for GP IIb/IIIa, fibronectin and vitronectin receptors were determined. […]
(§2) IC50 s for FnR were determined by ELISA (Example III). Those for VnR and GP IIb/IIIa were determined by liposome attachment assay (Example IV). […]

GP IIb/IIIa = GP IIb/IIIa (Homo sapiens, UniProt P05106+P08514); experiment: Liposome attachment assay for GP IIb/IIIa; conditions: read-out: IIb/IIIa Binding (IC50)
GP IIb/IIIa, sequence (P08514 32-887 limits assumed): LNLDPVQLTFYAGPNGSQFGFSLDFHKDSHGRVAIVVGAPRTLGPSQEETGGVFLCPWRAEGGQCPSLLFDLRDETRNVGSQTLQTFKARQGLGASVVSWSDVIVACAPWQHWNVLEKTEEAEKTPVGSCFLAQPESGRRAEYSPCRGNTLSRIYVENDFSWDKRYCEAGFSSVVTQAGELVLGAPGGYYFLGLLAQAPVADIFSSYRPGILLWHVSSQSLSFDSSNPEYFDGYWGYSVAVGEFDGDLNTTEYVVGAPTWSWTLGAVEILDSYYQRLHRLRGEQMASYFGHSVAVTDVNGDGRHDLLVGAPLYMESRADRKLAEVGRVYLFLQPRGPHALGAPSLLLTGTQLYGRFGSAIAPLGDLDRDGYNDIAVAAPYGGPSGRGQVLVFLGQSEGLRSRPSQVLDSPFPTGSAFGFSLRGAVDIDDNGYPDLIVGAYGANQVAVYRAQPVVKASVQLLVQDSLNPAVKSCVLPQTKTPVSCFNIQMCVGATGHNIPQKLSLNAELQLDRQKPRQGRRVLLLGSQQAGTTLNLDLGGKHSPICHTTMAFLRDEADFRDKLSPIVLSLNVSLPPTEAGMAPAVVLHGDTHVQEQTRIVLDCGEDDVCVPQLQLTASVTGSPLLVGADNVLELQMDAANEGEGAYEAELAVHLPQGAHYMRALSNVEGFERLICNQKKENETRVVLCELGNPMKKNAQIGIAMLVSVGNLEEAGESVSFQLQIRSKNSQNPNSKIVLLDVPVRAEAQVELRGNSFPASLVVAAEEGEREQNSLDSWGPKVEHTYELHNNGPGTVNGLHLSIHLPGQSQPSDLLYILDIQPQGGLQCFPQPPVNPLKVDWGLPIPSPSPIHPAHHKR
GP IIb/IIIa, sequence (P08514 891-1039 partner limits assumed): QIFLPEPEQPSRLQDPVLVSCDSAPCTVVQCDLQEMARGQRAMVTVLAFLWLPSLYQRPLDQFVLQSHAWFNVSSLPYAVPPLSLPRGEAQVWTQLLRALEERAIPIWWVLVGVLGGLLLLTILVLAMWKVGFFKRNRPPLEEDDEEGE
GP IIb/IIIa, sequence (P05106 27-788): as the sequence (P05106 27-788) above
Procedure: This assay was performed with minor modifications, according to the method of Pytela et al., Methods Enzymol. 144:475 (1987), incorporated herein by reference. Briefly, 1:4 mixture of labelled and unlabelled phosphatidylcholine (PC) liposomes was dissolved under nitrogen and diluted with an equal volume of purified receptor (purified as described in Example II) to achieve a fixed predetermined receptor-liposome concentration ratio. This mixture was then dialyzed overnight at 4° C. in phosphate buffered saline (PBS) containing 1 mM Ca^2+. An aliquot of the dialyzed sample was counted to assess radioactive content; the receptor-liposome mixture was then diluted to obtain a set radioactivity per unit volume.
Microtiter plates were coated with 10 μg of vitronectin. Non-specific sites were blocked for 2 hours at 37° C. in PBS containing 5 mg/ml BSA and 1 mM each of CaCl2 and MgCl2. The plates were then rinsed twice with PBS containing 1 mM Ca^+2 and Mg^+2, and 100 μl of the liposome-receptor mixture was added to each well. […]
as §1, §2

coronary thrombosis = experiment: Electrically induced canine coronary thrombosis, time to full occlusion; type: in vivo, dog
Procedure: Male mongrel dogs weighing 14 to 20 kg were selected based on proper aggregation of their platelets in response to arachidonic acid, collagen, and adenosine disphosphate (ADP) and based on similar weights and hemodynamic properties.
Before surgery, the animals were anesthetized with sodium pentobarbital (30 mg/kg, i.v.) and then intubated and ventilated on room air with positive pressure using a respirator (Harvard Apparatus, S. Natick, Mass.) at a volume of 30 ml/kg and a frequency of 12 breaths/min. Surgery, performed under aseptic conditions, was begun with the placement of cannulae into the left carotid artery and jugular vein for monitoring arterial blood pressure (Statham P23 pressure transducer, Gould, Inc., Cardiovascular Products, Oxnard, Calif.) and administering intravenous fluids.
The heart was exposed via a left thoracotomy through the 5th intercostal space. A 2-cm segment of the left circumflex coronary artery (LCCA) was isolated from surrounding tissue by blunt dissection. […] The intra-coronary electrode was constructed by attaching a 25-gauge hypodermic needle tip to a 30-gauge Teflon-insulated silver-coated copper wire. The mechanical occluder was constructed of stainless steel in a C shape with a Teflon screw (2 mm diameter) on top. It was adjusted to control vessel circumference and decrease the reactive hyperemic flow due to a 10-sec (full) occlusion by 50-70% without affecting basal coronary blood flow (FIG. 1). A monopolar epicardial electrode was sutured to the surface of the ventricle in the region of LCCA distribution to monitor ischemic changes in the electrocardiogram (ECG). The left atrium was cannulated with polythylene tubing for administration of the peptide. Continuous recordings of blood pressure, limb lead II ECG, epicardial electrogram, and mean and phasic LCCA blood flow were obtained on a Model 7 polygraph (Grass Instrument Co., Quincy, Mass.).
One hour after the completion of surgery, a 100 micro-amp continuous anodal direct current delivered from a 9 volt nickel-cadmium battery was applied to the intimal surface of the LCCA. The anode of the battery was in series with a 250,000 ohm potentiometer and the intraluminal coronary artery electrode. The electric circuit was completed by placing the cathode in a subcutaneous site. Electrical stimulation was applied for three hours. At the conclusion of each experiment, the heart was fibrillated electrically and quickly removed, and the LCCA was dissected free as far as possible to verify the position of the implanted anodal electrode.
(§3) Animals were randomly assigned to two treatment groups: vehicle control (i.e., normal saline) or RGD peptides at various concentrations. Peptides were administered intra-atrially in both bolus and continuous injections. Each bolus injection consisted of 5 or 10 mg/kg and was administered 15 minutes before application of the current. A continuous infusion of the same peptide was then started immediately after completion of this initial injection. Animals that received a 5 mg/kg bolus also received a 5 mg/kg/hr infusion, whereas animals that received a 10 mg/kg bolus also received a 10 mg/kg/hr infusion. The anti-thrombotic effects of the peptides were monitored until 30 minutes after the occurrence of a persistent, occlusive thrombus or five hours after the initiation of electrical stimulation (whichever resulted first). If an occlusive thrombus had not developed within four hours after the initiation of current, the peptide infusion was stopped.
Coronary thrombosis was quantified as the time to full occlusion. The effects of the various peptide treatments on coronary thrombosis is illustrated in FIG. 4.

platelets [4] = experiment: Ex vivo ADP-stimulated platelet aggregation in baboon PRP; conditions: animal 2; ADP 10 μm; 0, 1 and 2 hours
Procedure: At one- and two-hour time points, template bleeding times were measured, and blood samples were drawn to assess the hematology aggregation studies. Platelet aggregation studies were performed as described in Example V using ADP as the stimulus.
In addition, platelet aggregation studies were conducted on PRP derived from the second animal. Whole blood was drawn at three time points (0, 1 and 2 hours) of both control and experimental shunts.

platelets [5] = experiment: Ex vivo platelet aggregation after peptide injection in the canine coronary thrombosis model; parameters: species or system dog; conditions: for reduction of ex vivo aggregation relative to control levels: 3 mg/kg
Procedure: For all ex vivo studies (see FIG. 3), control aggregation values were standardized to the percentages of light transmission observed in PRP and PPP samples (0% and 100%, respectively).
as §3, with “Each bolus injection consisted of 5 or 10 mg/kg and was administered 15 minutes before application of the current.” left out
Platelet counts and ex vivo aggregation studies were performed one hour before and 1, 3, and 5 hours after application of anodal direct current.
Platelet aggregation was also determined ex vivo at one, three, and five hours after current application. For these studies, arachidonic acid, or collagen was again used to stimulate the platelets.

[6] = 10 mg/kg bolus + 10 mg/kg/hr, intra-atrial
[7] = 10 mg/kg, all three time points

(t-but-am-Pam-Pmp)GHRGDLRPenA showed an IC50 [1] of 89 µM.

In the case of FRGDSPDG, the IC50 [2] is reported as 0.12 µM.

In the case of GHRGDLRDASG, the IC50 [3] is reported as 36.8 µM.

Work on GPGRGDSPCA yielded an IC50 (GP IIb/IIIa) of 20 µM.

GPenGHRGDLRCA was tested, and the “time to full occlusion (coronary thrombosis)” value (“time to full occlusion” for short) (coronary thrombosis; [6]) was “did not significantly influence”, the “ex vivo platelet responsiveness to ADP” value (platelets [4]) was “completely unresponsive” and the “inhibition of ADP-stimulated ex vivo aggregation” value (platelets [5]; 10 mg/kg, 1, 3 and 5 h) was “substantially inhibited”. For the same substance, the “inhibition of AA-stimulated ex vivo aggregation relative to control levels” value (platelets [5]; [7]) was 43-70% and the “inhibition of collagen-stimulated ex vivo aggregation relative to control levels” value (platelets [5]; [7]) was 12-50%.

With GRGDSPDG the IC50 [2] was 0.005 µM.

With RPenGHRGDWRCR the “thrombus formation in animals whose circulating platelet levels were one-third of normal” value (coronary thrombosis; 5 mg/kg) was “able to prevent thrombus formation”, the “time to full occlusion” value (coronary thrombosis; 5 mg/kg bolus + 5 mg/kg/hr, intra-atrial) was “significantly prolonged” and the “time to full occlusion” value (coronary thrombosis; [6]) was “completely prevented occlusion”. The “blockade of all ex vivo aggregation responses” value (platelets [5]; 5 mg/kg) was “completely or near-maximally blocked”, the “inhibition of ex vivo platelet activation by collagen” value (platelets [5]; 5 mg/kg) was “near-maximal inhibition” and the “platelet responsiveness ex vivo to ADP and AA” value (platelets [5]; 5 mg/kg, all three time points) was “completely unresponsive”.

RPenGRGDWPCR was tested, and the “time to full occlusion” value (coronary thrombosis; 3 mg/kg) was “ineffective”, the “time to full occlusion” value (coronary thrombosis; [6]) was “prevented occlusion” and the “reduction of ex vivo aggregation relative to control levels” value (platelets [5]; one hour) was 20-58%. For the same substance, the “reduction of ex vivo aggregation relative to control levels” value (platelets [5]; three and five hours, listed as 4R) was 75-100% and 72-100% and the “ex vivo platelet responsiveness to all modes of stimulation” value (platelets [5]; 10 mg/kg, all time points) was “unresponsive”.
